{"source": "patent US8637484B2", "about": "“Modulation of growth hormone receptor expression and insulin-like growth factor expression” (Antisense Therapeutic Limited, priority 2003, dated 2014)", "key": {"[1]": {"test_system": "growth hormone receptor mRNA", "assay": "Growth hormone receptor mRNA levels in liver, additional 1 week study", "type": "in vivo, mouse", "conditions": "one-week study", "protocol": "Male Balb/C(a) mice were prepared and grouped for analysis as in Example 18 above.\nAnimals were treated and serum IGF-I levels were measured as in Example 18 above. Briefly, for the one-week study, mice were given a subcutaneous dose of saline every second day, and mismatch control or antisense with administration on days 0, 2, 4, 6. On day 7, the animals were anaesthetized with pentobarbital and non-fasting blood samples collected exactly 5 minutes later from the retrobulbar plexus through heparinized capillary tubes under light ether anesthesia. Serum IGF-I measurement was done by radioimmunoassay at day 7.\nGrowth hormone receptor mRNA levels in liver tissue samples from treated and untreated mice in this one-week study were assayed. The growth hormone receptor antisense inhibitor ISIS 227446 reduced growth hormone receptor mRNA levels in liver after the one-week study by 72% at the 50 mg/kg dose, relative to saline control (p<0.0001). The 30 mg/kg dose of ISIS 227446 yielded a 50% decrease in growth hormone receptor mRNA (p<0.0001). The unrelated control oligonucleotide ISIS 260120, at 50 mg/kg, reduced growth hormone receptor mRNA levels by approximately 15% (p>0.05)."}, "[2]": {"test_system": "growth hormone receptor mRNA", "assay": "Growth hormone receptor mRNA levels in liver, two-week mouse study", "type": "in vivo", "protocol": "A two-week study was done in similar fashion to the one-week study in Example 18, this time using ISIS 227446 at doses of 3, 5, 10, 20 and 30 mg/kg. The mismatch control was given at the same doses. Mice were treated with antisense compound or saline every other day for 14 days.\nGrowth hormone receptor mRNA levels in liver tissue samples from treated and untreated mice in this two-week study were assayed. The growth hormone receptor antisense inhibitor ISIS 227446 reduced growth hormone receptor mRNA levels in liver after the two-week study by 50% at the 20 mg/kg dose relative to saline control (p<0.001). The 30 mg/kg dose of ISIS 227446 yielded a 53% decrease in growth hormone receptor mRNA (p<0.0001). The mismatch control oligonucleotide ISIS 261303 (SEQ ID NO: 267), at 30 mg/kg, reduced growth hormone receptor mRNA levels by approximately 3%."}, "[3]": {"test_system": "blood vessel profiles (BVPs) in the inner retina", "assay": "Oxygen-induced retinopathy (ROP) in mice, blood vessel profiles in the inner retina", "type": "in vivo, mouse", "protocol": "Oxygen-induced retinopathy (also called retinopathy of prematurity or ROP) in laboratory animals is a widely used model for the study of retinal microvascular complications. Wilkinson-Berka et al., 2003, Invest. Opthalmol. V is Sci. 44, 974; Morayski, C. et al., 2000, Hypertension, 36,1099-1104.\nTo produce ROP, seven-day-old mice were placed in an infant incubator with their nursing mother in 75% oxygen from postnatal day 7 to day 12 as described in the literature. Smith et al., 1994, Invest Ophthalmol V is Sci 35, 101-111; Robinson et al., Proc Natl Acad Sci USA., 1996, May 14; 93, 4851-6. On postnatal day 12, the animals were returned to room air. Animals were sacrificed on postnatal day 17 when maximal neovascularization is observed. Sham-treated animals are handled similarly but are maintained in room air at all times.\nMice were dosed with antisense oligonucleotide in saline (total volume […]) at postnatal days 12, 13, 14, 15, and 16 or days 7, 8, 9, 11, 13, 15 and 17. Oligonucleotide was administered intraperitoneally at concentrations of 5, 10, 20 and 30 mg/kg. The mismatch control ISIS 261303 is also given.\nBlood vessel profiles (BVPs) in the inner retina are quantitated in eyes from 36 experimental groups. Each group contains 8 retina from 8 different mice. Tables 7, 8 and 9 indicate 1) from which groups eyes have been collected to date for sectioning and 2) how many animals have had BVPs quantitated to date in each experimental group.\n“Early intervention” (“Early I” in Tables 8-10) is used to describe mice pups that have been administered agents at postnatal days 7, 8, 9, 11, 13, 15 and 17 (7 doses). “Late intervention” (“Late I” in Tables 7-10) is used to describe mice pups administered agents at postnatal days 12, 13, 14, 15 and 16 (5 doses). All treatments were by intraperitoneal injection. Counting of blood vessel profiles (BVPs) in the inner retina is performed in a masked manner by investigators blinded to the experimental groups."}}, "note": "Marks after values point to notes of the source that are not given here. In the oligonucleotide strings, read from the 5' end, every base follows the letter of its sugar. An asterisk marks phosphorothioate; unmarked linkages are phosphodiester. Other units and linkages are bracketed, terminal groups are in braces. A string of capitals states the bases alone. e = 2'-O-(2-methoxyethyl) (MOE); [5mC] = 5-methylcytosine; d = 2'-deoxy (DNA)"}
{"substance": "acaaagatccatacctgaga (eA*e[5mC]*eA*eA*eA*dG*dA*dT*d[5mC]*d[5mC]*dA*dT*dA*d[5mC]*d[5mC]*eT*eG*eA*eG*eA; antisense) [ISIS 227446]", "values": [{"measurement": "decrease in growth hormone receptor mRNA in liver", "setting": "[1]; 30 mg/kg", "result": 50, "unit": "%"}, {"measurement": "reduction of growth hormone receptor mRNA levels in liver relative to saline control", "setting": "[1]; 50 mg/kg", "result": 72, "unit": "%"}, {"measurement": "reduction of growth hormone receptor mRNA levels in liver relative to saline control", "setting": "[2]; 20 mg/kg", "result": 50, "unit": "%"}, {"measurement": "decrease in growth hormone receptor mRNA in liver", "setting": "[2]; 30 mg/kg", "result": 53, "unit": "%"}, {"measurement": "Average # BVPs", "setting": "[3]; ROP + 5 mg/kg ip, Early I", "result": 28.25}, {"measurement": "Average # BVPs", "setting": "[3]; ROP + 5 mg/kg ip, Late I", "result": 25.19}, {"measurement": "Average # BVPs", "setting": "[3]; ROP + 10 mg/kg ip, Early I", "result": 23.18}, {"measurement": "Average # BVPs", "setting": "[3]; ROP + 30 mg/kg ip, Late I", "result": 24.24}, {"measurement": "Average # BVPs", "setting": "[3]; Sham + 20 mg/kg ip, Early I (postnatal days 7, 8, 9, 11, 13, 15, 17)", "result": "9.97*"}, {"measurement": "Average # BVPs", "setting": "[3]; Sham + 30 mg/kg ip, Early I", "result": "10.94*"}, {"measurement": "Average # BVPs", "setting": "[3]; Sham + 30 mg/kg ip, Late I (postnatal days 12-16)", "result": "11.25*"}, {"measurement": "effect on blood vessel profiles in sham-treated (no retinopathy) mice", "setting": "[3]; early intervention", "result": "no effect"}]}
